Patent publication US20250195536A1, “BICYCLOOCTANE KRAS INHIBITORS” (Incyte Corporation, priority 2023, published 2025)

How the values were obtained:
[1] = biological target: KRAS G12V (Homo sapiens, UniProt P01116, G12V); experiment: GDP-GTP exchange assay (KRAS G12V); format: biochemical; conditions: bodipy-GDP/GppNHp exchange with SOS1; 3 h incubation after GppNHp-SOS1;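 also: one dagger IC50 up to 100 nM and two daggers above 100 nM up to 1 μM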
In short: (§1)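 Bodipy-GDP-loaded KRAS (2.5 nM final) was pre-incubated 4 h at r.t. with inhibitor in Hepes pH 7.5 buffer with MgCl2, then exchange started with GppNHp (500 μM) and SOS1 (150 nM) final. Fluorescence (ex 485/em 520 nm) read after 2 h for G12D, 3 h for G12V; IC50 from four-parameter logistic fit.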

[2] = Caco2 assay (permeability, Papp A-B); format: in vitro ADME; conditions: human, Caco-2, absorptive direction (A-B), 50 μM test compound, 4% BSA in receiver
In short: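 Caco-2 monolayers, 22-25 days on Transwells, TEER 300 Ω·cm^2, dosed apically with 50 μM compound in HBSS; basolateral HBSS with 4% BSA. 120 min at 37 °C, samples quantified by LCMS; Papp (A-B) from receiver-side cumulative flux slope, donor volume, surface area and initial donor amount.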

[3] = biological target: KRAS G12D (Homo sapiens, UniProt P01116, G12D); experiment: GDP-GTP exchange assay (KRAS G12D); format: biochemical; conditions: bodipy-GDP/GppNHp exchange with SOS1; 4 h pre-incubation, 2 h reaction;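 also: one dagger IC50 up to 100 nM and two daggers above 100 nM up to 1 μM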
Sequence of KRAS G12D (P01116 1-188 isoform P01116-2 G12D): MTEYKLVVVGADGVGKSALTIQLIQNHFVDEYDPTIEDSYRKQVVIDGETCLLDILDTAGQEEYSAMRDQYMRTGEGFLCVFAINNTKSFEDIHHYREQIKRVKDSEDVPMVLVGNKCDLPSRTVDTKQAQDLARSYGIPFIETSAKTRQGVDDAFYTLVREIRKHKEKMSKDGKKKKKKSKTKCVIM
In short: as §1

Sequence of KRAS G12V (P01116 1-188 isoform P01116-2 G12V): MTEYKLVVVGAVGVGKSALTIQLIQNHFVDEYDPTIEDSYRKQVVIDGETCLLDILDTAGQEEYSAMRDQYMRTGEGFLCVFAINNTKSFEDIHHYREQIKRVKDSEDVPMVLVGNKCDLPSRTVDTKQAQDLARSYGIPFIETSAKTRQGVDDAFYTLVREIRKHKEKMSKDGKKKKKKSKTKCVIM

G12V_exchange (KRAS_G12V exchange assay IC50) [1] | Papp A→B at 120 min, 50 μM [2] | G12D_exchange (KRAS_G12D exchange assay IC50) [3] | SMILES
† | ≤ 0.5 ×10⁻⁶ cm/s | † | Cc1nc2c(F)c(-c3cccc(Cl)c3Cl)c(CCC#N)cc2c2c1cc([C@H]1[C@H]3C[C@H](CN(c4cccc(C(F)F)n4)C3)N1C(=O)C1CC1)n2[C@H]1[C@H]2CN[C@@H]1C2 (atropisomer, axis not shown; (Ra)) [Example 88, 3-((Ra)-1-((1R,4R,5S)-2-azabicyclo[2.1.1]hexan-5-yl)-2-((1S,5R,7R)-6-(cyclopropanecarbonyl)-3-(6-(difluoromethyl)pyridin-2-yl)-3,6-diazabicyclo[3.2.1]octan-7-yl)-7-(2,3-dichlorophenyl)-6-fluoro-4-methyl-1H-pyrrolo[3,2-c]quinolin-8-yl)propanenitrile]
† | ≤ 0.5 ×10⁻⁶ cm/s | † | Cc1nc2c(F)c(-c3cccc(Cl)c3Cl)c(CCC#N)cc2c2c1cc([C@H]1[C@H]3C[C@H](CN(c4cc(C(F)F)ccn4)C3)N1C(=O)C1CC1)n2[C@H]1[C@H]2CN[C@@H]1C2 (atropisomer, axis not shown; (Ra)) [Example 89, 3-((Ra)-1-((1R,4R,5S)-2-azabicyclo[2.1.1]hexan-5-yl)-2-((1S,5R,7R)-6-(cyclopropanecarbonyl)-3-(4-(difluoromethyl)pyridin-2-yl)-3,6-diazabicyclo[3.2.1]octan-7-yl)-7-(2,3-dichlorophenyl)-6-fluoro-4-methyl-1H-pyrrolo[3,2-c]quinolin-8-yl)propanenitrile]
† | ≤ 0.5 ×10⁻⁶ cm/s | † | Cc1csc(N2C[C@@H]3C[C@H](C2)N(C(=O)C2CC2)[C@H]3c2cc3c(C)nc4c(F)c(-c5cccc(Cl)c5Cl)c(CCC#N)cc4c3n2[C@H]2[C@H]3CN[C@@H]2C3)n1 (atropisomer, axis not shown; (Ra)) [Example 90, 3-((Ra)-1-((1R,4R,5S)-2-azabicyclo[2.1.1]hexan-5-yl)-2-((1S,5R,7R)-6-(cyclopropanecarbonyl)-3-(4-methylthiazol-2-yl)-3,6-diazabicyclo[3.2.1]octan-7-yl)-7-(2,3-dichlorophenyl)-6-fluoro-4-methyl-1H-pyrrolo[3,2-c]quinolin-8-yl)propanenitrile]
† | ≤ 0.5 ×10⁻⁶ cm/s | † | Cc1cnc(N2C[C@@H]3C[C@H](C2)N(C(=O)C2CC2)[C@H]3c2cc3c(C)nc4c(F)c(-c5cccc(Cl)c5Cl)c(CCC#N)cc4c3n2[C@H]2[C@H]3CN[C@@H]2C3)s1 (atropisomer, axis not shown; (Ra)) [Example 91, 3-((Ra)-1-((1R,4R,5S)-2-azabicyclo[2.1.1]hexan-5-yl)-2-((1S,5R,7R)-6-(cyclopropanecarbonyl)-3-(5-methylthiazol-2-yl)-3,6-diazabicyclo[3.2.1]octan-7-yl)-7-(2,3-dichlorophenyl)-6-fluoro-4-methyl-1H-pyrrolo[3,2-c]quinolin-8-yl)propanenitrile]
† | ≤ 0.5 ×10⁻⁶ cm/s | † | Cc1nc2c(F)c(-c3cccc(Cl)c3Cl)c(CCC#N)cc2c2c1cc([C@H]1[C@H]3C[C@H](CN(c4ncnn4C)C3)N1C(=O)C1CC1)n2[C@H]1[C@H]2CN[C@@H]1C2 (atropisomer, axis not shown; (Ra)) [Example 92, 3-((Ra)-1-((1R,4R,5S)-2-azabicyclo[2.1.1]hexan-5-yl)-2-((1S,5R,7R)-6-(cyclopropanecarbonyl)-3-(1-methyl-1H-1,2,4-triazol-5-yl)-3,6-diazabicyclo[3.2.1]octan-7-yl)-7-(2,3-dichlorophenyl)-6-fluoro-4-methyl-1H-pyrrolo[3,2-c]quinolin-8-yl)propanenitrile]
† | ≤ 0.5 ×10⁻⁶ cm/s | † | Cc1nc2c(F)c(-c3cccc(Cl)c3Cl)c(CCC#N)cc2c2c1cc([C@H]1[C@H]3C[C@H](CN(c4cscn4)C3)N1C(=O)C1CC1)n2[C@H]1[C@H]2CN[C@@H]1C2 (atropisomer, axis not shown; (Ra)) [Example 93, 3-((Ra)-1-((1R,4R,5S)-2-azabicyclo[2.1.1]hexan-5-yl)-2-((1S,5R,7R)-6-(cyclopropanecarbonyl)-3-(thiazol-4-yl)-3,6-diazabicyclo[3.2.1]octan-7-yl)-7-(2,3-dichlorophenyl)-6-fluoro-4-methyl-1H-pyrrolo[3,2-c]quinolin-8-yl)propanenitrile]

Further lines, the compound ahead of its results:

SMILES | G12V_exchange (KRAS_G12V exchange assay IC50) [1] | Papp A→B at 120 min, 50 μM [2] | G12D_exchange (KRAS_G12D exchange assay IC50) [3]
Cc1cc(N2C[C@@H]3C[C@H](C2)N(C(=O)C2CC2)[C@H]3c2cc3c(C)nc4c(F)c(-c5cccc(Cl)c5Cl)c(CCC#N)cc4c3n2[C@H]2[C@H]3CN[C@@H]2C3)cc(=O)o1 (atropisomer, axis not shown; (Ra)) [Example 80] | † | ≤ 0.5 ×10⁻⁶ cm/s | †
CCOc1cc(N2C[C@@H]3C[C@H](C2)N(C(=O)C2CC2)[C@H]3c2cc3c(C)nc4c(F)c(-c5cccc(Cl)c5Cl)c(CCC#N)cc4c3n2[C@H]2[C@H]3CN[C@@H]2C3)ccn1 (atropisomer, axis not shown; (Ra)) [Example 81, 3-((Ra)-1-((1R,4R,5S)-2-azabicyclo[2.1.1]hexan-5-yl)-2-((1S,5R,7R)-6-(cyclopropanecarbonyl)-3-(2-ethoxypyridin-4-yl)-3,6-diazabicyclo[3.2.1]octan-7-yl)-7-(2,3-dichlorophenyl)-6-fluoro-4-methyl-1H-pyrrolo[3,2-c]quinolin-8-yl)propanenitrile] | † | ≤ 0.5 ×10⁻⁶ cm/s | †
COCCOc1cc(N2C[C@@H]3C[C@H](C2)N(C(=O)C2CC2)[C@H]3c2cc3c(C)nc4c(F)c(-c5cccc(Cl)c5Cl)c(CCC#N)cc4c3n2[C@H]2[C@H]3CN[C@@H]2C3)ccn1 (atropisomer, axis not shown; (Ra)) [Example 83, 3-((Ra)-1-((1R,4R,5S)-2-azabicyclo[2.1.1]hexan-5-yl)-2-((1S,5R,7R)-6-(cyclopropanecarbonyl)-3-(2-(2-methoxyethoxy)pyridin-4-yl)-3,6-diazabicyclo[3.2.1]octan-7-yl)-7-(2,3-dichlorophenyl)-6-fluoro-4-methyl-1H-pyrrolo[3,2-c]quinolin-8-yl)propanenitrile] | † | ≤ 0.5 ×10⁻⁶ cm/s | †
Cc1cc(N2C[C@@H]3C[C@H](C2)N(C(=O)C2CC2)[C@H]3c2cc3c(C)nc4c(F)c(-c5cccc(Cl)c5Cl)c(CCC#N)cc4c3n2[C@H]2[C@H]3CN[C@@H]2C3)cc(C(F)F)n1 (atropisomer, axis not shown; (Ra)) [Example 84, 3-((Ra)-1-((1R,4R,5S)-2-azabicyclo[2.1.1]hexan-5-yl)-2-((1S,5R,7R)-6-(cyclopropanecarbonyl)-3-(2-(difluoromethyl)-6-methylpyridin-4-yl)-3,6-diazabicyclo[3.2.1]octan-7-yl)-7-(2,3-dichlorophenyl)-6-fluoro-4-methyl-1H-pyrrolo[3,2-c]quinolin-8-yl)propanenitrile] | † | ≤ 0.5 ×10⁻⁶ cm/s | †
Cc1nc2c(F)c(-c3cccc(Cl)c3Cl)c(CCC#N)cc2c2c1cc([C@H]1[C@H]3C[C@H](CN(c4cc(C(F)F)c(F)cn4)C3)N1C(=O)C1CC1)n2[C@H]1[C@H]2CN[C@@H]1C2 (atropisomer, axis not shown; (Ra)) [Example 85, 3-((Ra)-1-((1R,4R,5S)-2-azabicyclo[2.1.1]hexan-5-yl)-2-((1S,5R,7R)-6-(cyclopropanecarbonyl)-3-(4-(difluoromethyl)-5-fluoropyridin-2-yl)-3,6-diazabicyclo[3.2.1]octan-7-yl)-7-(2,3-dichlorophenyl)-6-fluoro-4-methyl-1H-pyrrolo[3,2-c]quinolin-8-yl)propanenitrile] | † | ≤ 0.5 ×10⁻⁶ cm/s | †
Cc1nc2c(F)c(-c3cccc(Cl)c3Cl)c(CCC#N)cc2c2c1cc([C@H]1[C@H]3C[C@H](CN(c4cccc(OC(F)F)n4)C3)N1C(=O)C1CC1)n2[C@H]1[C@H]2CN[C@@H]1C2 (atropisomer, axis not shown; (Ra)) [Example 86, 3-((Ra)-1-((1R,4R,5S)-2-azabicyclo[2.1.1]hexan-5-yl)-2-((1S,5R,7R)-6-(cyclopropanecarbonyl)-3-(6-(difluoromethoxy)pyridin-2-yl)-3,6-diazabicyclo[3.2.1]octan-7-yl)-7-(2,3-dichlorophenyl)-6-fluoro-4-methyl-1H-pyrrolo[3,2-c]quinolin-8-yl)propanenitrile] | † | ≤ 0.5 ×10⁻⁶ cm/s | †
Cc1nc2c(F)c(-c3cccc(Cl)c3Cl)c(CCC#N)cc2c2c1cc([C@H]1[C@H]3C[C@H](CN(c4nccc(C(F)F)n4)C3)N1C(=O)C1CC1)n2[C@H]1[C@H]2CN[C@@H]1C2 (atropisomer, axis not shown; (Ra)) [Example 87, 3-((Ra)-1-((1R,4R,5S)-2-azabicyclo[2.1.1]hexan-5-yl)-2-((1S,5R,7R)-6-(cyclopropanecarbonyl)-3-(4-(difluoromethyl)pyrimidin-2-yl)-3,6-diazabicyclo[3.2.1]octan-7-yl)-7-(2,3-dichlorophenyl)-6-fluoro-4-methyl-1H-pyrrolo[3,2-c]quinolin-8-yl)propanenitrile] | † | ≤ 0.5 ×10⁻⁶ cm/s | †
